Laboratory results: patent publication US10040749B2, “Opsin-binding ligands, compositions and methods of use” (priority 2011, dated 2018)

System: P23H opsin
Assay: Rhodopsin purification and regeneration (P23H cells treated with compound, regenerated with 9-cis-retinal, 480-500 nm absorbance)
Conditions: for Fold Increase Over Control: 480-500 nm absorbance as fold increase over DMSO control, P23H cells

Structure (SMILES) | Fold Increase Over Control (compound 10 μM) [fold] | Fold Increase Over Control (compound 20 μM) [fold] | regeneration of 500 nm absorbing pigment upon treatment with retinal (FIG. 1, P23H opsin treated with 20 μM during mutant protein production, relative to vehicle (DMSO) alone)
CC1=C(CNc2cccc(C(F)(F)F)c2)C(C)(C)CCC1.Cl [Compound 1, 3-(trifluoromethyl)-N-((2,6,6-trimethylcyclohex-1-enyl)methyl)aniline hydrochloride] | 1.8 |  | 
CC1=C(CNc2cccc(C)c2)C(C)(C)CCC1 [Compound 2, 3-methyl-N-((2,6,6-trimethylcyclohex-1-enyl)methyl)aniline] | 2.0 |  | 
CC1=C(CNc2cccc(Cl)c2)C(C)(C)CCC1 [Compound 5, 3-chloro-N-((2,6,6-trimethylcyclohex-1-enyl)methyl)aniline] | 1.8 |  | 
CC1=C(COc2cccc(C)c2)C(C)(C)CCC1 [Compound 6, 1-methyl-3-((2,6,6-trimethylcyclohex-1-enyl)methoxy)benzene] | 1.6 |  | 
CC1=C(COc2cccc(F)c2)C(C)(C)CCC1 [Compound 7, 1-fluoro-3-((2,6,6-trimethylcyclohex-1-enyl)methoxy)benzene] | 2.4 |  | 
CC1=C(COc2cccc(Cl)c2)C(C)(C)CCC1 [Compound 8, 1-chloro-3-((2,6,6-trimethylcyclohex-1-enyl)methoxy)benzene] | 2.2 |  | 
CC1=C(CNc2cccc(F)c2)C(C)(C)CCC1.Cl [Compound 10, 3-fluoro-N-((2,6,6-trimethylcyclohex-1-enyl)methyl)aniline hydrochloride] | 2.1 |  | 
C[C@H]1CCCC(C)(C)[C@@H]1CNc1cccc(C(F)(F)F)c1.Cl [Compound 12, 3-(trifluoromethyl)-N-(((1R,6S)-2,2,6-trimethylcyclohexyl)methyl)aniline hydrochloride] |  | 2.0 | 
CC1=C(CNc2ccc(F)c(C)c2)C(C)(C)CCC1.Cl [Compound 15, 4-fluoro-3-methyl-N-((2,6,6-trimethylcyclohex-1-enyl)methyl)aniline hydrochloride] | 1.6 |  | 
CC1=C(CC(O)c2cccc(C(F)(F)F)c2)C(C)(C)CCC1 (centres unmarked) [Compound 20, 1-(3-(trifluoromethyl)phenyl)-2-(2,6,6-trimethylcyclohex-1-enyl)ethanol] |  | 2.4 | 
CC1=C(COc2ccc(F)c(F)c2)C(C)(C)CCC1 [Compound 29, 1,2-difluoro-4-((2,6,6-trimethylcyclohex-1-enyl)methoxy) benzene] | 2.4 |  | 
CC1=C(C(O)Cc2ccc(C)c(C)c2)C(C)(C)CCC1 (centres unmarked) [Compound 30, 2-(3,4-dimethylphenyl)-1-(2,6,6-trimethylcyclohex-1-enyl)ethanol] | 1.8 |  | 
CC1(C)CCCC=C1CNc1cccc(F)c1.Cl [Compound 32, N-((6,6-dimethylcyclohex-1-enyl)methyl)-3-fluoroaniline hydrochloride] | 1.7 |  | 
C[C@H]1CCCC(C)(C)[C@@H]1CNc1cccc(Cl)c1.Cl [Compound 37, 3-chloro-N-(((1R,6S)-2,2,6-trimethylcyclohexyl)methyl)aniline hydrochloride] | 2.4 |  | 
C[C@H]1CCCC(C)(C)[C@@H]1CNc1cccc(F)c1.Cl [Compound 38, 3-fluoro-N-(((1R,6S)-2,2,6-trimethylcyclohexyl)methyl)aniline hydrochloride] | 2.4 |  | 
CC(=O)/C=C/C1=C(C)CCCC1(C)C [β-ionone, reference compound] |  | 2.4 | increase
